Source: US20210317086A1, “Tramadol HBR-Celecoxib Co-Crystal” (Mylan Laboratories Limited, priority 2018, published 2021)

Assay: Indicative stability: storage of the co-crystal at 40° C./75% RH and at 25° C./60% RH for 6 months, analysed by PXRD and HPLC
Format: physicochemical
Experimental: The PXRD measurements were carried out using PANalytical X′Pert PRO powder diffractometer equipped with goniometer of θ/θ configuration and X'Celerator detector. The Cu-anode X-ray tube was operated at 40 kV and 30 mA. The experiments were conducted over the […] of 2.0°-50.0°, 0.030° step size and 50 seconds step time.
In yet another embodiment, physical and chemical stability of 1:1 co-crystal of (rac)-tramadol.HBr-celecoxib sample was determined by storing the sample at 40° C./75% relative humidity (RH) and at 25° C./60% relative humidity (RH) for 6 months as mentioned in below Table 1. The samples were analyzed by PXRD and HPLC for final purity.

**Q.** For “1:1 co-crystal of (rac)-tramadol hydrobromide and celecoxib”, which “HPLC purity (%)” value (at 25° C./60% RH, 1 month) is on record?
**A.** Its value is 99.88%.

**Q.** And the PXRD (at 25° C./60% RH, 1 month)?
**A.** Its PXRD is “Stable”.

**Q.** What about the “HPLC purity (%)” value (at 25° C./60% RH, 2 months) of the same substance?
**A.** Its value is 99.89%.

**Q.** And the PXRD (at 25° C./60% RH, 2 months)?
**A.** Its PXRD is “Stable”.

**Q.** And the “HPLC purity (%)” value (at 25° C./60% RH, 3 months)?
**A.** The value was 99.87%.

**Q.** What about the PXRD (at 25° C./60% RH, 3 months) of the same substance?
**A.** The PXRD was “Stable”.

**Q.** What about the “HPLC purity (%)” value (at 25° C./60% RH, 6 months) of the same substance?
**A.** Its value is 99.87%.

**Q.** And the PXRD (at 25° C./60% RH, 6 months)?
**A.** The PXRD was “Stable”.

**Q.** And the “HPLC purity (%)” value (at 25° C./60% RH, Initial)?
**A.** Its value is 99.89%.

**Q.** And the PXRD (at 25° C./60% RH, Initial)?
**A.** Its PXRD is “Crystalline”.

**Q.** And the “HPLC purity (%)” value (at 40° C./75% RH, 1 month)?
**A.** Its value is 99.86%.

**Q.** What about the PXRD (at 40° C./75% RH, 1 month) of the same substance?
**A.** The PXRD was “Stable”.

**Q.** What about the “HPLC purity (%)” value (at 40° C./75% RH, 2 months) of the same substance?
**A.** Its value is 99.89%.

**Q.** What about the PXRD (at 40° C./75% RH, 2 months) of the same substance?
**A.** The PXRD was “Stable”.

**Q.** What about the “HPLC purity (%)” value (at 40° C./75% RH, 3 months) of the same substance?
**A.** Its value is 99.88%.

**Q.** What about the PXRD (at 40° C./75% RH, 3 months) of the same substance?
**A.** Its PXRD is “Stable”.

**Q.** What about the “HPLC purity (%)” value (at 40° C./75% RH, 6 months) of the same substance?
**A.** The value was 99.86%.

**Q.** What about the PXRD (at 40° C./75% RH, 6 months) of the same substance?
**A.** Its PXRD is “Stable”.

**Q.** And the “HPLC purity (%)” value (at 40° C./75% RH, Initial)?
**A.** Its value is 99.89%.

**Q.** And the PXRD (at 40° C./75% RH, Initial)?
**A.** The PXRD was “Crystalline”.

**Q.** And the “physical and chemical stability” value (conclusion from 6 months storage at 40° C./75% RH and 25° C./60% RH)?
**A.** The value was “physically and chemically stable”.

**Q.** What about the “change in HPLC purity and PXRD pattern on storage” value (stored for 6 months at 40° C./75% RH and at 25° C./60% RH) of the same substance?
**A.** Its value is “no change in HPLC purity and PXRD pattern”.
